Experimental data reported in patent US20160151337A1, “ANNELATED PYRROLES AND THEIR USE AS CRAC INHIBITORS” (Grünenthal GmbH, priority 2013, published 2016).

Experiments:
CRAC channel = target: T1, CRAC channel (Homo sapiens, UniProt Q96D31); experiment: HEK Calcium Influx Assay (FLIPR), inhibition of store-operated Ca2+ entry after thapsigargin store depletion; format: cell-based; conditions: 10 μM compound, HEK293 cells, read-out: % inhib. [@ 10 μM] FLIPR
T1 construct: endogenous in cells; host or cells: HEK293 (ECACC), untransfected
Method: The effect of compounds of the invention on intracellular [Ca^2+] was tested in the HEK293 cell line (ECACC).
HEK293 cells were cultured in DMEM/F12/Glutamax (Gibco) containing 10% FCS (Gibco), and maintained at 37° C., 5% CO2. Cell were split twice a week [3*10^6 (Mon-Thu) and 1*10^6 (Thu-Mon) cells/50 ml medium in 1-175 ZK culture flasks, respectively]. Twenty four hours pre-experiment, cells were seeded on 96 well plates (Poly-D-Lysine 96 well Black/Clear Plate, BD Biocoat REF 356640) at a density of 40,000 cells/well in DMEM/F12 (Gibco) containing 10% FCS (Gibco), and maintained at 37° C., 5% CO2.
Prior to store-depletion, cell culture medium was removed and cells were loaded with the Calcium-sensitive fluorescent dye comprised within the Calcium-4-assay kit (Molecular Devices) in nominally Ca^2+-free HBS buffer (140 mM NaCl, 4 mM KCl, 0.2 mM MgCl2, 11 mM D-glucose, and 10 mM HEPES, pH 7.4) according to manufacturer's instruction for 60 min at 37° C., 5% CO2.
Passive depletion of intracellular Ca^2+-stores was then triggered by employing the SERCA inhibitor thapsigargin (2 μM final) for 10 min in the dark (RT). To prevent immediate Ca^2+-entry via the activated store-operated channels (SOCs), cells were maintained in Ca^2+-free HBS buffer comprising 100 μM EGTA during store-depletion.
Intracellular changes in [Ca^2+] were subsequently monitored with the FLIPR device (Molecular Devices). In brief, baseline imaging post-store depletion was allowed for 1 min before adjusting the extracellular buffer to 3 mM CaCl2. Increases in intracellular [Ca^2+] due to pre-activated SOC channels were monitored for 15 min until intracellular Ca^2+ levels had declined into a steady-state. Finally, compounds were administered, and Ca^2+ signals were recorded for additional 10 min.
Inhibition of endogenous SOC in HEK293 cells was quantified employing the average Ca^2+ signal measured from 9.5-10 min post-administration. Zero percent inhibition (MAX) was defined as the Ca^2+ signal recorded from wells to which DMSO-only had been added instead of compound. Hundred percent inhibition (MIN) was defined as the signal obtained from wells in which cells haven't been treated with TG prior to Ca^2+ addition and to which DMSO-only had been added instead of compound. For routine IC50 determinations of compounds, 8 concentrations of a serial dilution (1:3.16) were tested, starting off from 10 μM. Reliable IC50's could consequently be determined only, if they were at least sub 2.5-3 μM.

[1] = test system: Interleukin-2 (IL-2) production/release in Jurkat T cells; experiment: Jurkat IL-2 Production Assay (PHA-stimulated, IL-2 AlphaLisa); format: cell-based; conditions: Homo sapiens, PHA 15 μg/ml, 22 h, inhibition of IL-2 production
Method: The effect of compounds of the invention on Interleukin-2 (IL-2) production/release was tested in the Jurkat T cell line (ECACC) clone E6-1.
Jurkat T cells were cultured in DMEM/F12/Glutamax (Gibco) containing 10% FCS (Gibco), and maintained at 37° C., 5% CO2. Cells were split twice a week [5*10^6 (Mon-Thu) and 1*10^7 (Thu-Mon) cells/50 ml medium in 1-175 ZK culture flasks, respectively].
Prior to experiment, cells were seeded on 96 well plates (Cellstar 96 Well; Cat No. 655180, Greiner bio-one) at a density of 5*10^5 cells/well in DMEM/F12/Glutamax (Gibco) containing 10% FCS (Gibco), and incubated for 60 min at 37° C., 5% CO2. Subsequently, compounds were added and cells were allowed to incubate for 30 min at 37° C., 5% CO2. Cells were then stimulated with 15 μg/ml Phyto-hemagglutinin (PHA; Sigma) for 22 hours at 37° C., 5% CO2.
Before sampling of the supernatants, cells were spun down (200*g/5 min/RT). The amount of IL-2 released into the supernatant was quantified with the human IL-2 AlphaLisa kit (Perkin Elmer) according to manufacturer's instructions. Luminescence proximity measurements were carried out in the Synergy H4 reader (BioTek) employing the fluorescence setting of the reader (ex: 680/30 nm; em: 620/40 nm).
Inhibition of IL-2 production/release in/from Jurkat T cells was quantified as follows: Zero percent inhibition (MAX) was defined as the [IL-2] determined in supernatants derived from cells to which PHA & DMSO-only had been added instead of compound. Hundred percent inhibition (MIN) was defined as the [IL-2] determined in supernatants derived from cells that had been pre-treated with 1 μM CyclosporineA (Sigma) before the addition of 15 μg/ml PHA.
For routine IC50 determinations of compounds, 8 concentrations of a serial dilution (1:3.16) were tested, starting off from 10 μM.

T1 sequence (Q96D31 whole entry): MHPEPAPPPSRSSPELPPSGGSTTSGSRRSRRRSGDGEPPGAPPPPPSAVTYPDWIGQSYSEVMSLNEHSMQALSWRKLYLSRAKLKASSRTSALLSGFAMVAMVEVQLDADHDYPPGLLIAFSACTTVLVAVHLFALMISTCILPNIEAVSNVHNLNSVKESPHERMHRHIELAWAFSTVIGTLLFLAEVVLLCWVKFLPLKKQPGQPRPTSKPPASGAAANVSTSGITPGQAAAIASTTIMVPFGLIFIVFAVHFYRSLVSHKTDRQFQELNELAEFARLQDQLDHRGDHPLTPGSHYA

Q: For `CCc1sc(-c2cccnc2)nc1N1CCc2[nH]c(-c3c(F)cccc3F)cc2C1` [Example 31, 4-[2-(2,6-Difluoro-phenyl)-4,5,6,7-tetrahydro-1H-pyrrolo[3,2-c]pyridin-5-yl]-5-ethyl-2-pyridin-3-yl-thiazole], which inhibition at 10 µM (CRAC channel) is on record?
A: < 50%

Q: And the IC50 [1]?
A: < 0.5 µM

Q: With `COc1cc(S(C)(=O)=O)ccc1N1CCc2[nH]c(-c3c(F)cccc3F)cc2C1` [Example 28, 2-(2,6-Difluoro-phenyl)-5-(2-methoxy-4-methylsulfonyl-phenyl)-4,5,6,7-tetrahydro-1H-pyrrolo[3,2-c]pyridine] as the molecule, how does the inhibition at 10 µM (CRAC channel) read?
A: > 70%

Q: What about the IC50 [1] of the same molecule?
A: 0.5 to 1 µM

Q: With `Cc1cc([S+](C)[O-])ncc1N1CCc2[nH]c(-c3c(F)cccc3F)cc2C1` (stereo not drawn) [Example 70, 2-(2,6-Difluoro-phenyl)-5-[4-methyl-6-(methylsulfinyl)-pyridin-3-yl]-4,5,6,7-tetrahydro-1H-pyrrolo[3,2-c]pyridine] as the molecule, how does the inhibition at 10 µM (CRAC channel) read?
A: > 70%

Q: What about the IC50 [1] of the same molecule?
A: 1 to 5 µM

Q: With `COCc1ccc(N2CCc3[nH]c(-c4c(F)cccc4F)cc3C2)c(C)c1` [Example 105, 2-(2,6-Difluoro-phenyl)-5-[4-(methoxymethyl)-2-methyl-phenyl]-4,5,6,7-tetrahydro-1H-pyrrolo[3,2-c]pyridine] as the molecule, how does the inhibition at 10 µM (CRAC channel) read?
A: > 70%

Q: And the IC50 [1]?
A: 0.5 to 1 µM

Q: `Cc1sc(-c2cccnc2)nc1N1CCc2[nH]c(-c3c(F)cccc3F)c(I)c2C1` [Example 66, 4-[2-(2,6-Difluoro-phenyl)-3-iodo-4,5,6,7-tetrahydro-1H-pyrrolo[3,2-c]pyridin-5-yl]-5-methyl-2-pyridin-3-yl-thiazole] was tested. Which inhibition at 10 µM (CRAC channel) did it give?
A: < 50%

Q: What about the IC50 [1] of the same molecule?
A: 1 to 5 µM

Q: Which results are given for `Fc1cccc(F)c1-c1cc2c([nH]1)CCN(c1cccc(C(F)(F)F)c1)C2` [Example 7, 2-(2,6-Difluoro-phenyl)-5-[3-(trifluoromethyl)phenyl]-4,5,6,7-tetrahydro-1H-pyrrolo[3,2-c]pyridine]?
A: inhibition at 10 µM (CRAC channel): < 50%; IC50 [1]: 1 to 5 µM

Q: How did the inhibition at 10 µM (CRAC channel) turn out when `Cc1cc([S+](C)[O-])ccc1N1CCc2[nH]c(-c3c(F)cccc3F)cc2C1` (stereo not drawn) [Example 87, 2-(2,6-Difluoro-phenyl)-5-[2-methyl-4-(methylsulfinyl)-phenyl]-4,5,6,7-tetrahydro-1H-pyrrolo[3,2-c]pyridine] was run?
A: > 70%

Q: And the IC50 [1]?
A: 1 to 5 µM

Q: What does the source list for `Cc1cc2c(cc1N1CCc3[nH]c(-c4c(F)cccc4F)cc3C1)OC(F)(F)O2` [Example 20, 5-(2,2-Difluoro-6-methyl-1,3-benzodioxol-5-yl)-2-(2,6-difluoro-phenyl)-4,5,6,7-tetrahydro-1H-pyrrolo[3,2-c]pyridine]?
A: inhibition at 10 µM (CRAC channel): < 50%; IC50 [1]: 1 to 5 µM

Q: `COC1(c2cc(N3CCc4[nH]c(-c5c(F)cccc5F)cc4C3)n(C)n2)CC1` [Example 137, 2-(2,6-Difluoro-phenyl)-5-[5-(1-methoxy-cyclopropyl)-2-methyl-2H-pyrazol-3-yl]-4,5,6,7-tetrahydro-1H-pyrrolo[3,2-c]pyridine] was tested. Which inhibition at 10 µM (CRAC channel) did it give?
A: > 70%

Q: And the IC50 [1]?
A: 1 to 5 µM

Q: Which results are given for `Cc1cc(OC(F)(F)F)ncc1N1CCc2[nH]c(-c3c(F)cccc3F)cc2C1` [Example 111, 2-(2,6-Difluoro-phenyl)-5-[4-methyl-6-(trifluoromethyloxy)-pyridin-3-yl]-4,5,6,7-tetrahydro-1H-pyrrolo[3,2-c]pyridine]?
A: inhibition at 10 µM (CRAC channel): < 50%; IC50 [1]: < 0.5 µM

Q: Which inhibition at 10 µM (CRAC channel) does the source give for `Cc1cc(C(F)(F)F)ncc1N1CCc2[nH]c(C3CCCOC3)cc2C1` (stereo not drawn) [Example 134, 5-[4-Methyl-6-(trifluoromethyl)-pyridin-3-yl]-2-tetrahydro-pyran-3-yl-4,5,6,7-tetrahydro-1H-pyrrolo[3,2-c]pyridine] here?
A: > 70%

Q: What about the IC50 [1] of the same molecule?
A: 1 to 5 µM

Q: With `Cc1sc(C2CC2)nc1N1CCc2[nH]c(-c3c(F)cccc3F)cc2C1` [Example 56, 2-Cyclopropyl-4-[2-(2,6-difluoro-phenyl)-4,5,6,7-tetrahydro-1H-pyrrolo[3,2-c]pyridin-5-yl]-5-methyl-thiazole] as the molecule, how does the inhibition at 10 µM (CRAC channel) read?
A: > 70%

Q: How did the inhibition at 10 µM (CRAC channel) turn out when `Cc1cc(S(C)(=O)=O)ncc1N1CCc2[nH]c(-c3snnc3C)cc2C1` [Example 89, 4-Methyl-5-[5-(4-methyl-6-methylsulfonyl-pyridin-3-yl)-4,5,6,7-tetrahydro-1H-pyrrolo[3,2-c]pyridin-2-yl]-[1,2,3]thiadiazole] was run?
A: 50 to 70%

Q: `Cc1cc(Cl)ncc1N1CCc2[nH]c(-c3c(F)cccc3F)cc2C1=O` [Example 38, 5-(6-Chloro-4-methyl-pyridin-3-yl)-2-(2,6-difluoro-phenyl)-1,5,6,7-tetrahydro-pyrrolo[3,2-c]pyridin-4-one] was tested. Which inhibition at 10 µM (CRAC channel) did it give?
A: > 70%

Q: With `Cc1cc(N2CCc3[nH]c(-c4c(F)cccc4Cl)cc3C2)n(C)n1` [Example 63, 2-(2-Chloro-6-fluoro-phenyl)-5-(2,5-dimethyl-2H-pyrazol-3-yl)-4,5,6,7-tetrahydro-1H-pyrrolo[3,2-c]pyridine] as the molecule, how does the inhibition at 10 µM (CRAC channel) read?
A: > 70%

Q: `Cc1sccc1N1CCc2[nH]c(-c3c(F)cccc3F)cc2C1` [Example 55, 2-(2,6-Difluoro-phenyl)-5-(2-methyl-thiophen-3-yl)-4,5,6,7-tetrahydro-1H-pyrrolo[3,2-c]pyridine] was tested. Which inhibition at 10 µM (CRAC channel) did it give?
A: > 70%

Q: How did the inhibition at 10 µM (CRAC channel) turn out when `COc1cnc(C(F)(F)F)nc1N1CCc2[nH]c(-c3c(F)cccc3F)cc2C1` [Example 84, 2-(2,6-Difluoro-phenyl)-5-[5-methoxy-2-(trifluoromethyl)-pyrimidin-4-yl]-4,5,6,7-tetrahydro-1H-pyrrolo[3,2-c]pyridine] was run?
A: 50 to 70%

Q: With `COc1cc(C#N)ccc1N1CCc2[nH]c(-c3c(F)cccc3Cl)cc2C1=O` [Example 41, 4-[2-(2-Chloro-6-fluoro-phenyl)-4-oxo-1,5,6,7-tetrahydro-pyrrolo[3,2-c]pyridin-5-yl]-3-methoxy-benzonitrile] as the molecule, how does the inhibition at 10 µM (CRAC channel) read?
A: 50 to 70%

Q: `Cc1sc(-c2cccnc2)nc1N1CCc2[nH]c(-c3ccc(Cl)nc3)cc2C1=O` [Example 43, 2-(6-Chloro-pyridin-3-yl)-5-(5-methyl-2-pyridin-3-yl-thiazol-4-yl)-1,5,6,7-tetrahydro-pyrrolo[3,2-c]pyridin-4-one] was tested. Which inhibition at 10 µM (CRAC channel) did it give?
A: 50 to 70%

Q: How did the inhibition at 10 µM (CRAC channel) turn out when `Cc1sc(-c2cccnc2)nc1N1CCc2[nH]c(-c3c(F)cccc3Cl)cc2C1` [Example 17, 4-[2-(2-Chloro-6-fluoro-phenyl)-4,5,6,7-tetrahydro-1H-pyrrolo[3,2-c]pyridin-5-yl]-5-methyl-2-pyridin-3-yl-thiazole] was run?
A: > 70%

Q: How did the inhibition at 10 µM (CRAC channel) turn out when `Cc1sc(C2CC2)nc1N1CCc2[nH]c(-c3c(F)cccc3F)cc2C1=O` [Example 48, 5-(2-Cyclopropyl-5-methyl-thiazol-4-yl)-2-(2,6-difluoro-phenyl)-1,5,6,7-tetrahydro-pyrrolo[3,2-c]pyridin-4-one] was run?
A: > 70%

Q: For `COc1cc(C)c(N2CCc3[nH]c(-c4c(F)cccc4F)cc3C2=O)cn1` [Example 39, 2-(2,6-Difluoro-phenyl)-5-(6-methoxy-4-methyl-pyridin-3-yl)-1,5,6,7-tetrahydro-pyrrolo[3,2-c]pyridin-4-one], which inhibition at 10 µM (CRAC channel) is on record?
A: 50 to 70%
